# Results taken from ChEMBL document CHEMBL4665836, “Overcoming β-Lactam resistance in Pseudomonas aeruginosa using non-canonical tobramycin-based antibiotic adjuvants” (2020).
# Columns and labels:
# Format in all cases: functional
# [1] = tested on: Pseudomonas aeruginosa; experiment: Potentiation of aztreonam-induced antibacterial activity against carbapenem-resistant Pseudomonas aeruginosa 101885 clinical isolate assessed as aztreonam MIC at 8 uM by checkerboard assay (reference value: 16 ug/ml)
# [2] = tested on: Pseudomonas aeruginosa; experiment: Potentiation of imipenem-induced antibacterial activity against carbapenem-resistant Pseudomonas aeruginosa 108590 clinical isolate assessed as imipenem MIC at 8 uM by checkerboard assay (reference value: 16 ug/ml)
# [3] = tested on: Pseudomonas aeruginosa; experiment: Potentiation of imipenem-induced antibacterial activity against carbapenem-resistant Pseudomonas aeruginosa 88949 clinical isolate assessed as fold reduction in imipenem MIC at 8 uM in presence of beta-lactamase inhibitor, rele-bactam
# [4] = tested on: Pseudomonas aeruginosa; experiment: Potentiation of aztreonam-induced antibacterial activity against carbapenem-resistant Pseudomonas aeruginosa 100036 clinical isolate assessed as aztreonam MIC at 8 uM by checkerboard assay (reference value: 16 ug/ml)
# [5] = tested on: Pseudomonas aeruginosa; experiment: Potentiation of aztreonam-induced antibacterial activity against carbapenem-resistant Pseudomonas aeruginosa 88949 clinical isolate assessed as aztreonam MIC at 8 uM by checkerboard assay (reference value: 32 ug/ml)
# [6] = tested on: Pseudomonas aeruginosa; experiment: Antibacterial activity against Pseudomonas aeruginosa PAO200 harboring mexAB-oprM efflux deficient mutant
# [7] = tested on: Pseudomonas aeruginosa; experiment: Potentiation of ceftazidime-induced antibacterial activity against carbapenem-resistant Pseudomonas aeruginosa 108590 clinical isolate assessed as ceftazidime MIC at 8 uM by checkerboard assay (reference value: 32 ug/ml)
# [8] = tested on: Pseudomonas aeruginosa; experiment: Potentiation of ceftazidime-induced antibacterial activity against carbapenem-resistant Pseudomonas aeruginosa 88949 clinical isolate assessed as ceftazidime MIC at 8 uM by checkerboard assay (reference value: 64 ug/ml)
# [9] = tested on: Pseudomonas aeruginosa; experiment: Potentiation of imipenem-induced antibacterial activity against carbapenem-resistant Pseudomonas aeruginosa 109084 clinical isolate assessed as fold reduction in imipenem MIC at 8 uM in presence of beta-lactamase inhibitor, rele-bactam
# [10] = tested on: Pseudomonas aeruginosa; experiment: Potentiation of ceftazidime-induced antibacterial activity against carbapenem-resistant Pseudomonas aeruginosa PAO200 harboring mexAB-oprM efflux deficient mutant assessed as ceftazidime MIC at 8 uM by checkerboard assay (reference value: 1 ug/ml)
# [11] = tested on: Pseudomonas aeruginosa; experiment: Potentiation of aztreonam-induced antibacterial activity against carbapenem-resistant Pseudomonas aeruginosa 264-104354 clinical isolate assessed as aztreonam MIC at 8 uM by checkerboard assay (reference value: 32 ug/ml)
# [12] = tested on: Pseudomonas aeruginosa; experiment: Potentiation of ceftazidime-induced antibacterial activity against carbapenem-resistant Pseudomonas aeruginosa 86052 clinical isolate assessed as ceftazidime MIC at 8 uM by checkerboard assay (reference value: 64 ug/ml)
# [13] = tested on: Pseudomonas aeruginosa; experiment: Potentiation of aztreonam-induced antibacterial activity against carbapenem-resistant Pseudomonas aeruginosa 107092 clinical isolate assessed as aztreonam MIC at 8 uM by checkerboard assay (reference value: 64 ug/ml)
# [14] = tested on: Pseudomonas aeruginosa; experiment: Potentiation of piperacillin-induced antibacterial activity against wild type Pseudomonas aeruginosa PAO1 assessed as fold reduction in piperacillin MIC at 8 uM
# [15] = tested on: Pseudomonas aeruginosa; experiment: Potentiation of ceftazidime-induced antibacterial activity against carbapenem-resistant Pseudomonas aeruginosa 101885 clinical isolate assessed as ceftazidime MIC at 8 uM by checkerboard assay (reference value: 8 ug/ml)
# [16] = tested on: Pseudomonas aeruginosa; experiment: Potentiation of aztreonam-induced antibacterial activity against carbapenem-resistant Pseudomonas aeruginosa 86052 clinical isolate assessed as aztreonam MIC at 8 uM by checkerboard assay (reference value: 64 ug/ml)
# [17] = tested on: Pseudomonas aeruginosa; experiment: Potentiation of imipenem-induced antibacterial activity against carbapenem and colistin-resistant Pseudomonas aeruginosa 91433 clinical isolate assessed as imipenem MIC at 8 uM by checkerboard assay (reference value: 8 ug/ml)
# [18] = tested on: Pseudomonas aeruginosa; experiment: Potentiation of imipenem-induced antibacterial activity against carbapenem-resistant Pseudomonas aeruginosa 107092 clinical isolate assessed as fold reduction in imipenem MIC at 8 uM in presence of beta-lactamase inhibitor, rele-bactam
# [19] = tested on: Pseudomonas aeruginosa; experiment: Potentiation of imipenem-induced antibacterial activity against carbapenem-resistant Pseudomonas aeruginosa 109084 clinical isolate assessed as imipenem MIC at 8 uM by checkerboard assay (reference value: 16 ug/ml)
# [20] = tested on: Pseudomonas aeruginosa; experiment: Potentiation of ceftazidime-induced antibacterial activity against carbapenem and colistin-resistant Pseudomonas aeruginosa 101243 clinical isolate assessed as ceftazidime MIC at 8 uM by checkerboard assay (reference value: 64 ug/ml)
# [21] = tested on: Pseudomonas aeruginosa; experiment: Potentiation of imipenem-induced antibacterial activity against carbapenem-resistant Pseudomonas aeruginosa 262-101856 clinical isolate assessed as imipenem MIC at 8 uM by checkerboard assay (reference value: 32 ug/ml)
# [22] = tested on: Pseudomonas aeruginosa; experiment: Potentiation of aztreonam-induced antibacterial activity against carbapenem-resistant Pseudomonas aeruginosa 109084 clinical isolate assessed as aztreonam MIC at 8 uM by checkerboard assay (reference value: 64 ug/ml)
# [23] = tested on: Pseudomonas aeruginosa; experiment: Potentiation of ceftazidime-induced antibacterial activity against carbapenem-resistant Pseudomonas aeruginosa PAO750 harboring and mexAB-oprM/mexCD-oprJ/mexEF-oprN/mexJK/mexXY/opmH efflux deficient mutant assessed as ceftazidime MIC at 8 uM by checkerboard assay (reference value: 0.5 ug/ml)
# [24] = tested on: Pseudomonas aeruginosa; experiment: Potentiation of ceftazidime-induced antibacterial activity against wild type Pseudomonas aeruginosa PAO1 assessed as fold reduction in ceftazidime MIC at 8 uM
# [25] = tested on: Pseudomonas aeruginosa; experiment: Potentiation of ceftazidime-induced antibacterial activity against carbapenem and colistin-resistant Pseudomonas aeruginosa 91433 clinical isolate assessed as ceftazidime MIC at 8 uM by checkerboard assay (reference value: 4 ug/ml)
# [26] = tested on: Pseudomonas aeruginosa; experiment: Potentiation of ceftazidime-induced antibacterial activity against carbapenem-resistant Pseudomonas aeruginosa 88949 clinical isolate assessed as fold reduction in ceftazidime MIC at 8 uM in presence of beta-lactamase inhibitor, avi-bactam
# [27] = tested on: Pseudomonas aeruginosa; experiment: Potentiation of imipenem-induced antibacterial activity against carbapenem-resistant Pseudomonas aeruginosa 264-104354 clinical isolate assessed as imipenem MIC at 8 uM by checkerboard assay (reference value: 16 ug/ml)
# [28] = tested on: Pseudomonas aeruginosa; experiment: Potentiation of ceftazidime-induced antibacterial activity against carbapenem-resistant Pseudomonas aeruginosa 109084 clinical isolate assessed as fold reduction in ceftazidime MIC at 8 uM in presence of beta-lactamase inhibitor, avi-bactam
# [29] = tested on: Pseudomonas aeruginosa; experiment: Potentiation of imipenem-induced antibacterial activity against carbapenem-resistant Pseudomonas aeruginosa 86052 clinical isolate assessed as imipenem MIC at 8 uM by checkerboard assay (reference value: 32 ug/ml)
# [30] = tested on: Pseudomonas aeruginosa; experiment: Potentiation of ceftazidime-induced antibacterial activity against carbapenem-resistant Pseudomonas aeruginosa 264-104354 clinical isolate assessed as ceftazidime MIC at 8 uM by checkerboard assay (reference value: 128 ug/ml)
# [31] = tested on: Pseudomonas aeruginosa; experiment: Potentiation of piperacillin-induced antibacterial activity against wild type Pseudomonas aeruginosa PAO1 assessed as piperacillin MIC at 8 uM by checkerboard assay (reference value: 8 ug/ml)
# [32] = tested on: Pseudomonas aeruginosa; experiment: Potentiation of ceftazidime-induced antibacterial activity against carbapenem-resistant Pseudomonas aeruginosa 108590 clinical isolate assessed as fold reduction in ceftazidime MIC at 8 uM in presence of beta-lactamase inhibitor, avi-bactam
# [33] = tested on: Pseudomonas aeruginosa; experiment: Potentiation of aztreonam-induced antibacterial activity against carbapenem and colistin-resistant Pseudomonas aeruginosa 101243 clinical isolate assessed as aztreonam MIC at 8 uM by checkerboard assay (reference value: 32 ug/ml)
Compound,MIC [1] [µg/mL],MIC [2] [µg/mL],fold change (FC) [3],MIC [4] [µg/mL],MIC [5] [µg/mL],MIC [6] [µg/mL],MIC [7] [µg/mL],fold change (FC) [9],fold change (FC) [14],MIC [17] [µg/mL],fold change (FC) [18],MIC [19] [µg/mL],MIC [21] [µg/mL],fold change (FC) [24],fold change (FC) [26],MIC [27] [µg/mL],fold change (FC) [28],MIC [29] [µg/mL],MIC [31] [µg/mL],fold change (FC) [32],further results
Cl.Cl.Cl.Cl.Cl.NC[C@H]1O[C@H](O[C@H]2[C@H](OCCCCCCCCCCCCN3CCN(c4cc5c(cc4F)c(=O)c(C(=O)O)cn5C4CC4)CC3)[C@@H](O)[C@H](N)C[C@@H]2N)[C@H](N)C[C@@H]1O,4,0.5,16,8,8,4,1,16,2,8,16,8,8,2,16,8,16,4,2,16,MIC [8]: 32 µg/mL; MIC [10]: 0.13 µg/mL; MIC [11]: 16 µg/mL; MIC [12]: 4 µg/mL; MIC [13]: 32 µg/mL; MIC [15]: 4 µg/mL; MIC [16]: 4 µg/mL; MIC [20]: 4 µg/mL; MIC [22]: 32 µg/mL; MIC [23]: 0.01 µg/mL; MIC [25]: 0.5 µg/mL; MIC [30]: 64 µg/mL; MIC [33]: 0.25 µg/mL
NC[C@H]1O[C@H](O[C@H]2[C@H](OCCCCc3cn(CCCCO[C@@H]4[C@@H](O[C@H]5O[C@H](CO)[C@@H](O)[C@H](N)[C@H]5O)[C@H](N)C[C@H](N)[C@H]4O[C@H]4O[C@H](CN)[C@@H](O)C[C@H]4N)nn3)[C@@H](O[C@H]3O[C@H](CO)[C@@H](O)[C@H](N)[C@H]3O)[C@H](N)C[C@@H]2N)[C@H](N)C[C@@H]1O.O=C(O)C(F)(F)F.O=C(O)C(F)(F)F.O=C(O)C(F)(F)F.O=C(O)C(F)(F)F.O=C(O)C(F)(F)F.O=C(O)C(F)(F)F.O=C(O)C(F)(F)F.O=C(O)C(F)(F)F.O=C(O)C(F)(F)F.O=C(O)C(F)(F)F,4,4,16,2,32,> 128,8,16,2,4,16,8,2,2,16,4,16,16,0.5,16,MIC [8]: 16 µg/mL; MIC [10]: 0.13 µg/mL; MIC [11]: 8 µg/mL; MIC [12]: 64 µg/mL; MIC [13]: 16 µg/mL; MIC [15]: 2 µg/mL; MIC [16]: 8 µg/mL; MIC [20]: 64 µg/mL; MIC [22]: 8 µg/mL; MIC [23]: 0.06 µg/mL; MIC [25]: 1 µg/mL; MIC [30]: 32 µg/mL; MIC [33]: 16 µg/mL
NC[C@H]1O[C@H](O[C@H]2[C@H](OCCCCCCCCN3CCCNCCNCCCNCC3)[C@@H](O[C@H]3O[C@H](CO)[C@@H](O)[C@H](N)[C@H]3O)[C@H](N)C[C@@H]2N)[C@H](N)C[C@@H]1O.O=C(O)C(F)(F)F.O=C(O)C(F)(F)F.O=C(O)C(F)(F)F.O=C(O)C(F)(F)F.O=C(O)C(F)(F)F.O=C(O)C(F)(F)F.O=C(O)C(F)(F)F.O=C(O)C(F)(F)F.O=C(O)C(F)(F)F,,16,16,,,> 128,,16,2,8,16,8,16,2,16,8,16,16,2,16,
